According to the SangsterLogP compilation:

**Q.** For CC=C(CCCC)C1(CCC)C(=O)NC(=O)NC1=O, which logP is on record?
**A.** Its logP is 2.65.

**Q.** Which logP does the source give for CC/C=C(/C)C1(CCC)C(=O)NC(=O)NC1=O here?
**A.** Its logP is 2.15.

**Q.** With C=C(C)C1(CCCC)C(=O)NC(=O)NC1=O as the molecule, how does the logP read?
**A.** Its logP is 1.65.

**Q.** With CC=C(CCCC)C1(C)C(=O)NC(=O)NC1=O as the molecule, how does the logP read?
**A.** Its logP is 2.15.

**Q.** Which logP does the source give for CC=C(CCC)C1(C)C(=O)NC(=O)NC1=O here?
**A.** Its logP is 1.65.

**Q.** For C/C=C(/C)C1(CC)C(=O)NC(=O)NC1=O, which logP is on record?
**A.** The logP was 1.15.

**Q.** For C/C=C(\CC)C1(C)C(=O)NC(=O)NC1=O, which logP is on record?
**A.** The logP was 1.15.

**Q.** With C/C=C(\C)C1(CCC)C(=O)NC(=O)NC1=O as the molecule, how does the logP read?
**A.** Its logP is 1.65.

**Q.** With C=C(C)C1(CCC)C(=O)NC(=O)NC1=O as the molecule, how does the logP read?
**A.** The logP was 1.15.

**Q.** Which logP does the source give for CC/C=C(\C)C1(CC)C(=O)NC(=O)NC1=O here?
**A.** The logP was 1.65.

**Q.** With C/C=C(\CC)C1(CC)C(=O)NC(=O)NC1=O as the molecule, how does the logP read?
**A.** The logP was 1.65.

**Q.** With CC/C=C(\C)C1(C(C)C)C(=O)NC(=O)NC1=O as the molecule, how does the logP read?
**A.** The logP was 1.95.

**Q.** Which logP does the source give for CC=C(CCC)C1(CC)C(=O)NC(=O)NC1=O here?
**A.** The logP was 2.15.

**Q.** With C=C(C)C1(CC)C(=O)NC(=O)NC1=O as the molecule, how does the logP read?
**A.** Its logP is 0.65.

**Q.** With C/C=C(\CC)C1(C(C)C)C(=O)NC(=O)NC1=O as the molecule, how does the logP read?
**A.** Its logP is 1.95.

**Q.** Which logP does the source give for C/C=C(\CC)C1(CCC)C(=O)NC(=O)NC1=O here?
**A.** Its logP is 2.15.

**Q.** With C=C(C)C1(CCCCC)C(=O)NC(=O)NC1=O as the molecule, how does the logP read?
**A.** Its logP is 2.15.

**Q.** With CC/C=C(\C)C1(C)C(=O)NC(=O)NC1=O as the molecule, how does the logP read?
**A.** The logP was 1.15.

**Q.** Which logP does the source give for C=C(C)C1(CC(C)C)C(=O)NC(=O)NC1=O here?
**A.** Its logP is 1.45.

**Q.** For CC=C(C(C)C)C1(C)C(=O)NC(=O)NC1=O, which logP is on record?
**A.** Its logP is 1.45.

**Q.** Which logP does the source give for CCCC=C(CC)C1(CC)C(=O)NC(=O)NC1=O here?
**A.** The logP was 2.65.

**Q.** For C=CCC1(/C(C)=C/C)C(=O)NC(=O)NC1=O, which logP is on record?
**A.** Its logP is 2.15.

**Q.** For C=C(C)C1(C)C(=O)NC(=O)NC1=O, which logP is on record?
**A.** Its logP is 0.15.

**Q.** For C=C(C)C1(CCC(C)C)C(=O)NC(=O)NC1=O, which logP is on record?
**A.** The logP was 1.95.

**Q.** With C/C=C(\C)C1(C)C(=O)NC(=O)NC1=O as the molecule, how does the logP read?
**A.** The logP was 0.65.
